{
  "source": "the NIST ThermoML archive (doi:10.1021/je900460m)",
  "note": "Numbers after ± are expanded uncertainties.",
  "data": [
    {"smiles": "CCCCCCn1cc[n+](C)c1.N#C[S-]", "note": "[1-hexyl-3-methylimidazolium thiocyanate]", "values": [
      {"measurement": "mass density", "setting": "298.15 K, 101.33 kPa, Liquid, Pycnometric method", "value": "1056.92 ± 11", "unit": "kg/m3"},
      {"measurement": "viscosity", "setting": "298.15 K, Liquid, Capillary tube (Ostwald / Ubbelohde) method", "value": "93.62 ± 3.1", "unit": "mPa·s"},
      {"measurement": "Glass transition temperature", "setting": "Glass, visual observation", "value": "-83.2 ± 3", "unit": "°C"}
    ]}
  ]
}
